Like-named read-outs stand apart in the source and are kept apart here.
Tests used:
[1] = test system: HCVcc-Luc (2a); experiment: microbe, parasite or virus in culture; assay type: cell-based, HCV; conditions: read-out: EC50, HCVcc-Luc (2a)
[2] = test system: Con1b replicon; experiment: Con1b replicon efficacy assay; assay type: cell-based, HCV; conditions: Hepatitis C virus, read-out: EC50, Con1b replicon
[3] = in vitro; assay type: cell-based; conditions: human
[4] = ATPlite cytotoxicity assay under Con1b replicon efficacy assay conditions; assay type: cell-based; conditions: human

| SMILES | EC50 ([1]; Hepatitis C virus) | EC50 [2] | CC50 [3] | CC50 ([4]; Con1b replicon cell line) | EC50 ([1]; single agent, mean of ≥3 independent tests ±SEM) | CC50 [4] |
| --- | --- | --- | --- | --- | --- | --- |
| C[C@@]1(O)[C@H](O)[C@@H](CO)O[C@H]1n1ccc(N)nc1=O [2′-C-methylcytidine] | 1400 ± 400 nM | 1610 ± 70 nM | > 100000 nM | > 100000 nM | – | – |
| CN1CCN([C@@H](c2ccccc2)c2ccc(Cl)cc2)CC1 [(S)-CCZ, (S)-chlorcyclizine] | – | – | – | – | 24 ± 9 nM | – |
| CC(C)(C)NC(=O)N[C@H](C(=O)N1C[C@H]2[C@@H]([C@H]1C(=O)NC(CC1CCC1)C(=O)C(N)=O)C2(C)C)C(C)(C)C (some centres unmarked) [Boceprevir, boceprevir] | – | 620 ± 10 nM | > 100000 nM | – | – | > 100000 nM |
| COC(=O)N[C@H](C(=O)N1CCC[C@H]1c1nc(-c2ccc(-c3ccc(-c4c[nH]c([C@@H]5CCCN5C(=O)[C@@H](NC(=O)OC)C(C)C)n4)cc3)cc2)c[nH]1)C(C)C [Daclatasvir, daclatasvir] | 0.04 ± 0.02 nM | 0.04 ± 0.02 nM | 45000 ± 1000 nM | 22000 ± 1000 nM | – | – |
| CC(C)OC(=O)[C@H](C)N[P@](=O)(OC[C@H]1O[C@@H](n2ccc(=O)[nH]c2=O)[C@](C)(F)[C@@H]1O)Oc1ccccc1 [Sofosbuvir, sofosbuvir] | 60 ± 2 nM | 400 ± 100 nM | > 100000 nM | – | – | > 100000 nM |
| CCC[C@H](NC(=O)[C@@H]1[C@H]2CCC[C@H]2CN1C(=O)[C@@H](NC(=O)[C@@H](NC(=O)c1cnccn1)C1CCCCC1)C(C)(C)C)C(=O)C(=O)NC1CC1 [Telaprevir, telaprevir] | 200 ± 40 nM | 550 ± 50 nM | > 100000 nM | 97800 ± 900 nM | – | – |

Reference: article PMC5580926 (Antiviral therapy, 2016)
